The inhibition is the relative decrease from the control value, in per cent.

Here are results for one molecule from publication PMC6934184, “Selective DNA-PKcs inhibition extends the therapeutic index of localized radiotherapy and chemotherapy” (The Journal of Clinical Investigation, 2019).

SMILES strings stand for the structures.

For the assay, the target named is T1, AURKA (Aurora A) (Homo sapiens, UniProt O14965).
T1 construct: purchased Thermo Fisher Scientific (Life Technologies) SelectScreen
T1 sequence (O14965 whole entry): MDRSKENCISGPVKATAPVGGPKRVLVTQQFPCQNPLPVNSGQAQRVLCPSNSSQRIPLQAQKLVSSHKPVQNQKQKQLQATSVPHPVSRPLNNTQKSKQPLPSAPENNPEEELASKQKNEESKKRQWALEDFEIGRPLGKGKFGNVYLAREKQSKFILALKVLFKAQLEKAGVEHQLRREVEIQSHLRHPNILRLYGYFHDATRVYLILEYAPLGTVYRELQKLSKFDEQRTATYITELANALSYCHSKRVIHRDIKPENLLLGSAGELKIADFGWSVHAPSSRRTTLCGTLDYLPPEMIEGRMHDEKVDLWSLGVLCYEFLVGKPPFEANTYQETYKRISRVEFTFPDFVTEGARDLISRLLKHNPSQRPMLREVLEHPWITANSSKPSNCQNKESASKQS
As to the kind of experiment: SelectScreen Z'LYTE. Format: biochemical. The method in brief:
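Compound tested in SelectScreen activity assays, Z'LYTE for CSF1R, CDK1/cyclin B and MAP2K6 and Adapta for CAMK1. ATP for CAMK1 was listed as 10, and Km app was used for CSF1R. Results are expressed in percent.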

`CN(C(=O)CN1CCOCC1)c1ccc2sc3c(-c4cccc5c(=O)cc(N6CC7CCC(C6)O7)oc45)cccc3c2c1` [NU5455]: the inhibition at 1 µM is -0.1%.
